A short description of data set [1]: Acute toxicity (LD50, Litchfield-Wilcoxon method). To be noted: mouse, in vivo, male mice. As to the method:
LD50 values of oxidized derivatives of steryl-β-D-glucoside and acetyl derivatives thereof were calculated by Litchfield-Wilcoxon method using male mice.

Data set [2] concerns bleeding at the end of mouse's tail. Put plainly: Hemostatic effects: influences on bleeding at the end of mouse's tail. In kind it is in vivo. To be noted: vs untreated control. On the procedure: Influences on bleeding at the end of mouse's tail:
Groups each comprising 10 male mice were employed. According to a method of Motohashi, et al. [Journal of Tokyo Jikei-kai Medical College, 75 (5) (1959)], the end of tail (1 cm) of each mouse was cut out with a sharp surgical knife and the blood threading from the wound into water was observed. A time required until the bleeding stopped completely was measured and rate of readuction of the bleeding time as compared with that of untreated control group was calculated.

Data set [3] deals with hemorrage in mouse's lung. The experiment in a line: Capillary stabilizing effects: inhibiting hemorrage in mouse's lung caused by pressure reduction. In kind it is in vivo. To be noted: pressure reduction to 50±0.5 mmHg/15 sec., score method; for ED50: Mus musculus, oral administration. As to the method:
C. Capillary stabilizing effects:
Effects of inhibiting hemorrage in mouse's lung:
Degree of hemorrage in mouse's lung caused by pressure reduction to 50±0.5 mmHg/15 sec. was determined by a method of G. J. Mojovski, et al. [J. Pharm. Exp. Therap., 80, 1, (1944)] (score method). From the inhibition rate calculated as compared with untreated control group, ED50 of the sample was calculated.

Where [4] appears, read: ip, intraperitoneal administration, read-out: LD50 Intraperitoneal administration.
[5] abbreviates: oral administration, read-out: LD50 Oral administration.

The structures appear in SMILES notation. Read-outs that look alike come from different tables or passages of the source. A value given as a limit tells only on which side of the number the result lay.

As for `CC(=O)OCC1OC(OC2CCC3(C)C(=CC(=O)C4C3CCC3(C)C(C(C)CCCC(C)C)CCC43)C2)C(OC(C)=O)C(OC(C)=O)C1OC(C)=O` [Compound 5, (7-Ketocholesteryl)-2,3,4,6-tetra-0-acetyl-β-D-glucopyranoside], the figures for the LD50 in data set [1] (setting [4]) and in data set [1] (setting [5]) were greater than 15000 mg/kg and greater than 12000 mg/kg, respectively.
Consider `CCC(C=CC(C)C1CCC2C3C(O)C=C4CC(OC5OC(CO)C(O)C(O)C5O)CCC4(C)C3CCC12C)C(C)C` (centres unmarked) [Compound 16], for which, in data set [2] (0.1 mg/Kg i.p.), the “Reduction rate (of bleeding time)” value is listed as 23%. Moreover, the values for the LD50 in data set [1] (setting [4]) and in data set [1] (setting [5]) were greater than 15000 mg/kg and greater than 12000 mg/kg, respectively.
As for `CC(=O)OCC1OC(OC2CCC3(C)C(=CC(O)C4C3CCC3(C)C(C(C)CCCC(C)C)CCC43)C2)C(OC(C)=O)C(OC(C)=O)C1OC(C)=O` [Compound 11, (7-hydroxycholesteryl)-2,3,4,6-tetra-0-acetyl-β-D-glucopyranoside], the “Reduction rate (of bleeding time)” value in data set [2] (0.1 mg/Kg i.p.) came out at 18%.
For the compound `CCC(CCC(C)C1CCC2C3C(=O)C=C4CC(OC5OC(COC(C)=O)C(OC(C)=O)C(OC(C)=O)C5OC(C)=O)CCC4(C)C3CCC12C)C(C)C` (centres unmarked) [Compound 6], the “Reduction rate (of bleeding time)” value in data set [2] (0.1 mg/Kg i.p.) was 22%. This compound also showed an ED50 in data set [3] of 62 mg/kg.
Consider `CCC(CCC(C)C1CCC2C3C(O)C=C4CC(OC5OC(COC(C)=O)C(OC(C)=O)C(OC(C)=O)C5OC(C)=O)CCC4(C)C3CCC12C)C(C)C` (centres unmarked) [Compound 12], for which the LD50 in data set [1] (setting [4]) is greater than 15000 mg/kg; in data set [1] (setting [5]), greater than 12000 mg/kg.
As for `CC(C)CCCC(C)C1CCC2C3C(=O)C=C4CC(OC5OC(CO)C(O)C(O)C5O)CCC4(C)C3CCC12C` [Compound 8, (7-Ketocholesteryl)-β-D-glucopyranoside], the “Reduction rate (of bleeding time)” value in data set [2] (0.1 mg/Kg i.p.) was 36%. The LD50 in data set [1] (setting [4]) was greater than 15000 mg/kg; in data set [1] (setting [5]) it was greater than 12000 mg/kg.
As to `CC(C)CCCC(C)C1CCC2C3C(O)C=C4CC(OC5OC(CO)C(O)C(O)C5O)CCC4(C)C3CCC12C` [Compound 14, (7-Hydroxycholesteryl)-β-D-glucopyranoside], the 50% effect level in data set [3] (ED50) was put at a dose of 38 mg/kg.
For the compound `CN1C2=CC(=O)/C(=N\NC(N)=O)C=C2CC1S(=O)(=O)[O-].[Na+]` (centres unmarked) [Sodium carbazochromesulfonate, reference compound], in data set [2] (10.0 mg/Kg i.p.), the “Reduction rate (of bleeding time)” value turned out to be 21%. The compound further registered an ED50 oral administration in data set [3] greater than 400 mg/kg.
Turning to `CCC(C=CC(C)C1CCC2C3C(=O)C=C4CC(OC5OC(CO)C(O)C(O)C5O)CCC4(C)C3CCC12C)C(C)C` (centres unmarked) [Compound 10], it took a dose of 43 mg/kg to reach the 50% effect level in data set [3] (ED50).

For the origin of these results see patent US4402948A, “Steroid glycoside compounds and methods of use” (Nippon Shinyaku Co., Ltd., priority 1980, dated 1983).
